Results reported in patent publication US20200289482A1, “CYSTIC FIBROSIS TRANSMEMBRANE CONDUCTANCE REGULATOR MODULATORS FOR TREATING AUTOSOMAL DOMINANT POLYCYSTIC KIDNEY DISEASE” (The Johns Hopkins University, priority 2017, published 2020).

Legend:
NHE3 = NHE3 activity in PN cells; format: cell-based, mouse; settings: PN cells treated with VX-809 vs PN cells
Method: FIG. 15A and FIG. 15B show NHE3 activity in PN and PH cells (FIG. 15A and FIG. 15B) and NHE3 activity in PN cells treated with VX-809.
FIG. 16A, FIG. 16B, and FIG. 16C show NHE activity in PN/PH cells or PN cells treated with VX-809;
The expression and activity of […] were evaluated. Specifically, NHE3 expression was evaluated in PN cells that were treated with VX-809. […] was also studied in PN, PH, and PN cells treated with VX-809. […] Next, NHE3 activity was evaluated in PN/PH cells or PN cells treated with VX-809. NHE3 activity was increased in PN cells treated with VX-809, as compared to PN cells (FIG. 16A). NHE3 activity was higher in control PH cells than in PN cells (FIG. 16B). […] NHE3 activity was increased in both VX-809 treated PN cells and control PH cells, as compared to control PN cells (FIG. 16C).

CFTR = CFTR (Mus musculus, UniProt P26361); assay: CFTR expression in PN cells; format: cell-based; parameters: endogenous in cells; host or cells: PN (Pkd1-null mouse proximal tubule) cells; settings: 10 μM VX-809 for 16 h vs control PN cells
Chain of CFTR (P26361 whole entry): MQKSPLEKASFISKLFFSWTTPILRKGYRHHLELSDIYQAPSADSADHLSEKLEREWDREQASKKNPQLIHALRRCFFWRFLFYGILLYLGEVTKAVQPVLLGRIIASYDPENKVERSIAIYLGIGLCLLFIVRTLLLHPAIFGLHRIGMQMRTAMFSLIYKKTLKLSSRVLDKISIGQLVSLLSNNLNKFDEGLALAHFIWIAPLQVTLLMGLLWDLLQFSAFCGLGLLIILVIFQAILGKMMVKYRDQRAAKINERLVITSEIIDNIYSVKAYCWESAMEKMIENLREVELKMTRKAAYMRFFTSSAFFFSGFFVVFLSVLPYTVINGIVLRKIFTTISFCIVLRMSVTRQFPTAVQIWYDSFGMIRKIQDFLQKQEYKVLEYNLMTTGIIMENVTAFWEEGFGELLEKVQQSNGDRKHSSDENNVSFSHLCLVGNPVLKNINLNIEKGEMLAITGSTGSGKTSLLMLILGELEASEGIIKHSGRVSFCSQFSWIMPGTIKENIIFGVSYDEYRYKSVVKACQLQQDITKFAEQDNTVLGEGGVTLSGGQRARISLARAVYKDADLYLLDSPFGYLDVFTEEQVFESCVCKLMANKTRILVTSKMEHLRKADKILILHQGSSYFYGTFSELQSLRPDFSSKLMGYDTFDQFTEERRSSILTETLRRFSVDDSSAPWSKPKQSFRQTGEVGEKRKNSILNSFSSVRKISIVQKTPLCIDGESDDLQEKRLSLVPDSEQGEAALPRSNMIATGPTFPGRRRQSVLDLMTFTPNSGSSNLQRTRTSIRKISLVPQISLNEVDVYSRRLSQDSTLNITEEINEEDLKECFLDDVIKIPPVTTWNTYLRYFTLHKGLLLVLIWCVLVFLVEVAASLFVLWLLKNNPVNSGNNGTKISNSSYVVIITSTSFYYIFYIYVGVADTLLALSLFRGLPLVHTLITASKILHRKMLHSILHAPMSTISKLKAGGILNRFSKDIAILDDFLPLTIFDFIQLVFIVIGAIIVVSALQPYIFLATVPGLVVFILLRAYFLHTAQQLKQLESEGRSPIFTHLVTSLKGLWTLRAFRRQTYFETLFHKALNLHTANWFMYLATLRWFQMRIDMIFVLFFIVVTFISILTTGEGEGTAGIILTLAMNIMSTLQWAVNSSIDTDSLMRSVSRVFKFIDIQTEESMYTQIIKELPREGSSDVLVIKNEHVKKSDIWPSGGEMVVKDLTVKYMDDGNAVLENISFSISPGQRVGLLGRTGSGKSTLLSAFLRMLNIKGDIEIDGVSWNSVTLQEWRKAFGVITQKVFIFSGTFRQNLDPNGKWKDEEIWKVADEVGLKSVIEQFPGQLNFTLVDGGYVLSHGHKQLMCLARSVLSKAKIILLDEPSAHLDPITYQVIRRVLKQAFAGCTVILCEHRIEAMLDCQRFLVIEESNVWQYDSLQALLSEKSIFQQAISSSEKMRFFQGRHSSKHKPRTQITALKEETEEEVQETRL
Method: FIG. 19A, FIG. 19B, FIG. 19C, and FIG. 19D show CFTR expression in PN cells treated with VX-809 (10 μM) for 16 h.
The expression of CFTR was evaluated in PN cells treated with VX-809 and control PN cells. PN cells were treated with 10 μM VX-809 for 16 h or a control.

cAMP in PN cells = assay: Cyclic AMP enzyme immunoassay in cells; format: cell-based, mouse
Method: (§1) FIG. 4A, FIG. 4B, FIG. 4C, FIG. 4D, and FIG. 4E show (FIG. 4A-FIG. 4B) cAMP levels are reduced by VX-809. (FIG. 4A) cAMP levels in mouse tissue were reduced by VX-809. The kidney samples (n=6) analyzed were taken from those depicted in FIG. 1. (FIG. 4B) Confluent PN and PH cells were treated with VX-809 (10 μM) or DMSO for 16 h and then treated with forskolin (100 μM) for 30 min before the cells were harvested for the assay. Columns represent means±SEM. Statistical analysis was performed using a two-tailed Student's t-test. Each set of data is from three individual wells; Note that resting cAMP is greater in PN vs PH cells as previously shown (25). Also note that forskolin caused a large increase in cAMP. A smaller increase occurred with IBMX. However, the increase induced by forskolin alone was similar to that by IBMX plus forskolin. […] (FIG. 4C, FIG. 4D, and FIG. 4E) Adenylyl cyclase expression. (FIG. 4C) Western blot showing the expression of adenylyl cyclase (AC) 6 and AC3 in treated and control PN cells. (FIG. 4D-FIG. 4E) Columns represent means±SEM of the AC3 and AC6 expression. The data were analyzed by non-parametric t-test. The experiment was repeated four times. For all graphs, *P<0.05, **P<0.01, and ***P<0.001;
It has been shown previously in both animal and cell culture models of ADPKD that cells lacking functional PC1 have elevated cAMP levels when compared to normal (24). To assess the effect of CFTR correctors, cAMP activity was measured in PC1 conditional knockout mouse kidneys and in PN cells that were either left untreated or treated with VX-809. […] Cells were treated with forskolin, which increased cAMP levels drastically (FIG. 4B). […] Treating PN cells with forskolin or IBMX (FIG. 4B) increased the cAMP activity by ˜10-fold.
Confluent cells were treated with VX-809 (10 μM) or DMSO for 16 h before being harvested for assay. Cyclic AMP levels were measured with a direct cAMP Enzyme Immunoassay Kit (Sigma, # CA200) according to the manufacturer's protocol. The results are expressed as pmole/ml. Statistical analysis was performed using a two-tailed Student's t-test.

GADD153 = assay: Western blot of ER stress marker GADD153 in kidney tissue; format: in vivo, mouse; settings: cyst containing mice, VX-809 30 mg/kg BW
Method: FIG. 11A. FIG. 11B, FIG. 11C, FIG. 11D, and FIG. 11E show expression of ER stress markers GRP78, ErO1, and GADD in Pkd1^−/− mice treated with VX-809. (FIG. 11A & FIG. 11D) Representative Western blot images of GRP78, ErO1, and GADD in lysates of kidney tissue from no cyst induced (ND), cyst induced with doxycycline (D) or cyst induced pkd−/− mice treated with VX-809 (D+VX-809) 30 mg/kg BW. (FIG. 11B, FIG. 11C and FIG. 11E) Columns represent averages±standard errors of GRP78, ErO1, and GADD153 expression. Data were analyzed by non-parametric t-test. n=4 for each treated and control groups. Black lines between lanes represent representative experiments from the same gel but loaded in different lanes. **P<0.01, ***P<0.001;
Given that VX-809 alters an ensemble of Hsps, it was evaluated whether VX-809 alters proteins associated with ER stress. To address this question, the levels of three ER stress-associated proteins were measured, 78-kDa glucose-regulated protein (GRP78), ER oxidoreductin 1 (Ero1) and DNA damage-inducible protein 3 (GADD153), also known as C/EBP homologous protein (CHOP) (37). The results are depicted in FIG. 11 show no changes in GRP78 or Ero1 in response to VX-809.

AC3 = assay: Western blot of adenylyl cyclase 3 expression; format: cell-based, mouse; settings: PN cells treated with VX-809
Method: as §1
There are two classes of adenylyl cyclases that are regulated by intracellular Ca^2+: one class is activated, and the other inhibited. […]

Question: Which NHE3 activity (NHE3) does the source give for lumacaftor [VX-809] here?
Answer: significantly increased

Question: What about the CFTR expression (CFTR) of the same substance?
Answer: enhanced CFTR expression

Question: What about the “forskolin-induced increase in cAMP” value (cAMP in PN cells; VX-809 10 μM 16 h, then forskolin 100 μM 30 min) of the same substance?
Answer: reduced the forskolin-induced increase in cAMP

Question: What about the “resting cAMP levels in PN cells” value (cAMP in PN cells; VX-809 10 μM, 16 h vs untreated PN cells) of the same substance?
Answer: significantly decreased the cAMP levels

Question: What about the “forskolin- or IBMX-induced increases in adenylyl cyclase activity” value (cAMP in PN cells; forskolin in combination with IBMX, data bars 5 and 9 FIG. 4B) of the same substance?
Answer: did not affect the forskolin- or IBMX-induced increases in adenylyl cyclase activity

Question: And the “GADD153 expression (Western blot)” value (GADD153)?
Answer: equally dramatic reduction in GADD153

Question: And the AC3 levels (AC3)?
Answer: decreased
